What follows are compounds tested against T1, human Mnk2a (Homo sapiens, UniProt Q9HBH9) (assay: Mnk2a in vitro kinase assay (indirect fluorescence polarization)). Conditions: GST-Mnk2a pre-activated with ERK2, 20 μM ATP, 30 μM substrate peptide; read-out: MNK2 IC50.
T1 construct: made in house; host or cells: E. coli BL21 (vector pGEX-4T1)
Format: biochemical
Description: Inhibitory potency of compounds against Mnk1, Mnk2a and other kinases was assessed with assays based on a format known to those skilled in the art as the indirect (competitive) fluorescence polarization. The assay detection system comprises a small fluorophore-labeled phospho-peptide (termed ligand) bound to a phospho-specific antibody. The product generated by the kinase reaction competes with the ligand for antibody binding. Based on the larger molecular volume of the bound ligand, which results in a lower rotation rate in solution, its emitted light has a higher degree of polarization than the one from the free ligand.
As a source of enzyme, human Mnk1 and human Mnk2a were expressed as GST fusion proteins in E. coli, purified to >80% homogeneity by glutathione affinity chromatography and activated in vitro with pre-activated ERK2. In brief, the open reading frames of human Mnk1 and Mnk2a were amplified from cDNA using the forward/reverse primer pairs
(utilized restriction sites underlined), respectively, and cloned into the BamHI and SalI sites of the vector pGEX-4T1 (Amersham, Sweden, cat. no. 27-4580-01). These constructs allow prokaryotic expression of Mnk1 or Mnk2a as fusion protein with a N-terminal glutathione S-transferase (GST) tag, referred to as GST-Mnk1 or GST-Mnk2a. The following expression and purification procedure was identical for GST-Mnk1 and GST-Mnk2a, referring in general to GST-Mnk, when not distinguishing between the two isoforms. Expression of GST-Mnk was in E. coli BL21 (Merck Biosciences, Germany, cat. no. 69449). Cells were grown in LB-Bouillon (Merck, Germany, cat. no. 1.10285) supplemented with 100 μg/ml ampicillin (Sigma, Germany, cat. no. A9518) at 37° C. When the culture had reached a density corresponding to an A600 of 0.8, an equal volume of ice cold LB/ampicillin was added, the culture transferred to 25° C. and induced for 4 h with 1 mM isopropyl thiogalactoside (IPTG, Roth, Germany, cat. no. 2316.4). Cells harvested by centrifugation were resuspended in 10 ml lysis buffer (50 mM tris(hydroxymethyl)aminomethane hydrochloride (Tris/HCl, Sigma, Germany, cat. no. T5941) pH 7.5, 300 mM sodium chloride (NaCl, Sigma, Germany, cat. no. S7653), 5% (w/v) glycerol (Sigma, Germany, cat. no. G5516), 3 mM DTT dithiotreitol (DTT, Sigma, Germany, cat. no. D9779)) per gram wet weight cell pellet. Lysates were prepared by disruption of cells with a sonifier and subsequent clearing by centrifugation at 38000 g for 45 min at 4° C.
The lysate was applied to a GSTPrep FF 16/10 column (Amersham, Sweden, cat. no. 17-5234-01) equilibrated with lysis buffer. Removal of unbound material was with 3 column volumes (CV) lysis buffer. Elution was with 2 CV of elution buffer (50 mM Tris/HCl pH 7.5, 300 mM NaCl, 5% (w/v) glycerol, 20 mM glutathione (Sigma, Germany, cat. no. G4251)). Peak fractions were pooled and the protein transferred into storage buffer (50 mM Tris/HCl pH 7.5, 200 mM NaCl, 0.1 mM ethylene glycol-bis(2-aminoethylether)-N,N,N′,N′-tetraacetic acid (EGTA, Aldrich, Germany, cat. no. 23, 453-2), 1 mM DTT, 10% (w/v) glycerol, 0.5 M sucrose (Sigma, Germany, cat. no. SO389) by gel filtration on a PD10 desalting column (Amersham, Sweden, cat. no. 17-0851-01). Aliquots were shock frozen in liquid nitrogen and stored at −80° C.
Activation of Mnk1 and Mnk2a was at a concentration of 2.5 μM of either purified GST-Mnk1 or GST-Mnk2a by incubation with 150 nM pre-activated NHis-ERK2 (see ERK2 assay for preparation) and 50 μM adenosine triphosphate (ATP, Sigma, cat. no. A2699) in a buffer comprising 20 mM N-(2-hydroxyethyl)piperazine-N′-(2-ethanesulfonic acid) (HEPES, Fluka, Germany, cat. no 54459)/potassium hydroxide (KOH, Roth, Germany, cat. no 6751.1) pH 7.4, 10 mM magnesium chloride (MgCl2, Sigma, Germany, cat. no. M2670), 0.25 mM DTT, 0.05% (w/v) polyoxyethylene 20 stearylether (Brij 78, Sigma, Germany, cat. no. P4019) (HMDB buffer) for 45 min at 30° C. […]

T1 sequence (Q9HBH9 whole entry): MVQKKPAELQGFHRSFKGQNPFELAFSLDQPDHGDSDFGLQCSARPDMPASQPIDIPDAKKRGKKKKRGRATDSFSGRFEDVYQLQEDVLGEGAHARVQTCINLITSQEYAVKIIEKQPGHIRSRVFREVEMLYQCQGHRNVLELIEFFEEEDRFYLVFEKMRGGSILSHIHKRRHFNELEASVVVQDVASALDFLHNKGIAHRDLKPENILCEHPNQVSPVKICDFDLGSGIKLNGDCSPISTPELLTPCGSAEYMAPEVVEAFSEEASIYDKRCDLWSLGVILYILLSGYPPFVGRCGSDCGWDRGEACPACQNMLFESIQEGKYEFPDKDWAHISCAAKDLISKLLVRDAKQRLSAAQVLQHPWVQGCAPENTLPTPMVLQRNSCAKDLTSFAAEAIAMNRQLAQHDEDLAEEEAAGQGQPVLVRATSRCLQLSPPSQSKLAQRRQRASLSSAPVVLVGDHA

SMILES | IC50 [nM]
Cc1c(C(=O)NCCOc2ccccc2)sc2ncnc(Nc3ccc(F)cc3OC3CCCNC3)c12 (centres unmarked) [Example 44] | 64
COc1ccc(CNC(=O)c2sc3ncnc(Nc4ccc(F)cc4OC4CCCNC4)c3c2C)cc1 (centres unmarked) [Example 45] | 36
Cc1c(C(=O)NCCc2ccc(O)cc2)sc2ncnc(Nc3ccc(F)cc3OC3CCCNC3)c12 (centres unmarked) [Example 46] | 15
Cc1c(C(=O)NCCS(=O)(=O)N(C)C)sc2ncnc(Nc3ccc(F)cc3OC3CCCNC3)c12 (centres unmarked) [Example 47] | 51
Cc1c(C(=O)NCC(C)(C)Cl)sc2ncnc(Nc3ccc(F)cc3OC3CCCNC3)c12 (centres unmarked) [Example 48] | 75
Cc1c(C(=O)NCC(C)(C)O)sc2ncnc(Nc3ccc(F)cc3OC3CCCNC3)c12 (centres unmarked) [Example 49] | 99
Cc1c(C(=O)NCCOCCO)sc2ncnc(Nc3ccc(F)cc3OC3CCCNC3)c12 (centres unmarked) [Example 50] | 72
Cc1c(C(=O)NC[C@@H]2CCC(=O)N2)sc2ncnc(Nc3ccc(F)cc3OC3CCCNC3)c12 (some centres unmarked) [Example 51] | 160
CCN1CCC[C@@H]1CNC(=O)c1sc2ncnc(Nc3ccc(F)cc3OC3CCCNC3)c2c1C (some centres unmarked) [Example 52] | 130
Cc1c(C(=O)NCCC2CCCN2C)sc2ncnc(Nc3ccc(F)cc3OC3CCCNC3)c12 (centres unmarked) [Example 53] | 46
Cc1c(C(=O)NCC2CN(C)CCO2)sc2ncnc(Nc3ccc(F)cc3OC3CCCNC3)c12 (centres unmarked) [Example 55] | 51
Cc1c(C(=O)NCCCc2ccncc2)sc2ncnc(Nc3ccc(F)cc3OC3CCCNC3)c12 (centres unmarked) [Example 56] | 49
Cc1c(C(=O)NCc2cc(F)ccc2F)sc2ncnc(Nc3ccc(F)cc3OC3CCCNC3)c12 (centres unmarked) [Example 57] | 43
Cc1c(C(=O)NCc2cccc3ccccc23)sc2ncnc(Nc3ccc(F)cc3OC3CCCNC3)c12 (centres unmarked) [Example 58] | 64
Cc1c(C(=O)NCc2ccc(Cl)c(F)c2)sc2ncnc(Nc3ccc(F)cc3OC3CCCNC3)c12 (centres unmarked) [Example 59] | 48
Cc1c(C(=O)NCc2cccc3ccccc23)sc2ncnc(Nc3ccc(F)cc3OC3CCCNC3)c12 (centres unmarked) [Example 60] | 64
Cc1c(C(=O)NCc2ccc3sccc3c2)sc2ncnc(Nc3ccc(F)cc3OC3CCCNC3)c12 (centres unmarked) [Example 61] | 38
Cc1c(C(=O)NCC(c2cccnc2)N(C)C)sc2ncnc(Nc3ccc(F)cc3OC3CCCNC3)c12 (centres unmarked) [Example 62] | 110
Cc1c(C(=O)NCc2ccc(OC(C)C)cc2)sc2ncnc(Nc3ccc(F)cc3OC3CCCNC3)c12 (centres unmarked) [Example 63] | 43
Cc1c(C(=O)Nc2ccn(C)n2)sc2ncnc(Nc3ccc(F)cc3O[C@H]3CCCNC3)c12 [Example 64, 4-[4-Fluoro-2-((S)-piperidin-3-yloxy)-phenylamino]-5-methyl-thieno[2,3-d]pyrimidine-6-carboxylic acid (1-methyl-1H-pyrazol-3-yl)-amide] | 21
Cc1c(C(N)=O)sc2ncnc(Nc3ccc(C(F)(F)F)cc3O[C@H]3CCCNC3)c12 [Example 65, 5-Methyl-4-[2-((S)-piperidin-3-yloxy)-4-trifluoromethyl-phenylamino]-thieno[2,3-d]pyrimidine-6-carboxylic acid amide] | 190
Cc1c(C(N)=O)sc2ncnc(Nc3ccc(Cl)cc3O[C@H]3CCCNC3)c12 [Example 66, 4-[4-Chloro-2-((S)-piperidin-3-yloxy)-phenylamino]-5-methyl-thieno[2,3-d]pyrimidine-6-carboxylic acid amide] | 10
Cc1c(C(N)=O)sc2ncnc(Nc3ccc(C#N)cc3O[C@H]3CCCNC3)c12 [Example 67, 4-[4-Cyano-2-((S)-piperidin-3-yloxy)-phenylamino]-5-methyl-thieno[2,3-d]pyrimidine-6-carboxylic acid amide] | 46

Further lines, results first:

IC50 [nM] | SMILES
80 | Cc1ccc(Nc2ncnc3sc(C(N)=O)c(C)c23)c(O[C@H]2CCCNC2)c1 [Example 68, 4-[4-Methyl-2-((S)-piperidin-3-yloxy)-phenylamino]-5-methyl-thieno[2,3-d]pyrimidine-6-carboxylic acid amide]
19 | Cc1c(C(N)=O)sc2ncnc(Nc3cccnc3O[C@H]3CCCNC3)c12 [Example 69, 5-Methyl-4-[2-((S)-piperidin-3-yloxy)-pyridin-3-ylamino]thieno[2,3-d]pyrimidine-6-carboxylic acid amide]
89 | Cc1c(C(N)=O)sc2ncnc(Nc3ccc(F)cc3O[C@@H]3CCCNC3)c12 [Example 71, 4-[4-Fluoro-2-((R)-piperidin-3-yloxy)-phenylamino]-5-methyl-thieno[2,3-d]pyrimidine-6-carboxylic acid amide]
9 | Cc1c(C(N)=O)sc2ncnc(Nc3ccc(F)cc3O[C@@H]3CCCN(Cc4ncon4)C3)c12 [Example 72, 4-[4-Fluoro-2-((R)-1-[1,2,4]oxadiazol-3-ylmethyl-piperidin-3-yloxy)-phenylamino]-5-methyl-thieno[2,3-d]pyrimidine-6-carboxylic acid amide]
5 | Cc1c(C(N)=O)sc2ncnc(Nc3ccc(F)cc3O[C@@H]3CCCN(CC(F)(F)F)C3)c12 [Example 73]
3 | Cc1c(C(N)=O)sc2ncnc(Nc3ccc(F)cc3O[C@@H]3CCCN(CC(F)F)C3)c12 [Example 74, 4-{2-[(R)-1-(2,2-Difluoro-ethyl)-piperidin-3-yloxy]-4-fluoro-phenylamino}-5-methyl-thieno[2,3-d]pyrimidine-6-carboxylic acid amide]
22 | COCCN1CCC[C@@H](Oc2cc(F)ccc2Nc2ncnc3sc(C(N)=O)c(C)c23)C1 [Example 75]
43 | Cc1c(C(N)=O)sc2ncnc(Nc3ccc(F)cc3O[C@@H]3CCCN(C)C3)c12 [Example 76, 4-[4-Fluoro-2-((R)-1-methyl-piperidin-3-yloxy)-phenylamino]-5-methyl-thieno[2,3-d]pyrimidine-6-carboxylic acid amide]
28 | Cc1c(C(N)=O)sc2ncnc(Nc3ccc(F)cc3O[C@@H]3CCCN(Cc4nccs4)C3)c12 [Example 78]
12 | Cc1c(C(N)=O)sc2ncnc(Nc3ccc(F)cc3O[C@@H]3CCCN(CCC(F)(F)F)C3)c12 [Example 79]
20 | Cc1c(C(N)=O)sc2ncnc(Nc3ccc(F)cc3O[C@@H]3CCCN(CCO)C3)c12 [Example 80]
6 | Cc1c(C(N)=O)sc2ncnc(Nc3ccc(F)cc3O[C@@H]3CCCN(Cc4cccn4C)C3)c12 [Example 81]
8 | Cc1c(C(N)=O)sc2ncnc(Nc3ccc(F)cc3O[C@@H]3CCCN(CCC#N)C3)c12 [Example 82, 4-{2-[(R)-1-(2-Cyano-ethyl)-piperidin-3-yloxy]-4-fluoro-phenylamino}-5-methyl-thieno[2,3-d]pyrimidine-6-carboxylic acid amide]
120 | CC(=O)N1CCC[C@@H](Oc2cc(F)ccc2Nc2ncnc3sc(C(N)=O)c(C)c23)C1 [Example 83]
2 | Cc1c(C(N)=O)sc2ncnc(Nc3ccc(F)cc3O[C@@H]3CCCN(S(C)(=O)=O)C3)c12 [Example 84, 4-[4-Fluoro-2-((R)-1-methanesulfonyl-piperidin-3-yloxy)-phenylamino]-5-methyl-thieno[2,3-d]pyrimidine-6-carboxylic acid amide]
